What follows are compounds tested against human MER (528-end) (Homo sapiens (Human), UniProt Q12866) (assay: HTRF Kinase Activity Biochemical Assay (KinEASE-TK)). Conditions: 10 uM ATP.
human MER (528-end), sequence (Q12866 528-999 limits assumed): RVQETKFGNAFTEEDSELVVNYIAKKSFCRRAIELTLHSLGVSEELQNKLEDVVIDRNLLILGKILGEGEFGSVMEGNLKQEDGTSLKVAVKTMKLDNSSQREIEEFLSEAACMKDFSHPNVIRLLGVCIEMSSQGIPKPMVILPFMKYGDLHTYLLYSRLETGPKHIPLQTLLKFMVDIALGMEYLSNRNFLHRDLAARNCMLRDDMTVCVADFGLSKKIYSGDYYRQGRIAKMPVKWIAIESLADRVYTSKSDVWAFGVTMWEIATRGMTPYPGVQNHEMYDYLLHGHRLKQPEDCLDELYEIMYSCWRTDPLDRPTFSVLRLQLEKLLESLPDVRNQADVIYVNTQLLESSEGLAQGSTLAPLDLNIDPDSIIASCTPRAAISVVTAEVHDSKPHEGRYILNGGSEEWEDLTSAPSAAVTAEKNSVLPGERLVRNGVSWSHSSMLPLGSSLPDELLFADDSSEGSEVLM
Procedure, shortened: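 Activity read-out is the HTRF ratio (665 nm over 620 nm emission, ×10,000; excitation 340 nm) after 1 h detection with 0.375 nM Eu3+-cryptate anti-TK antibody plus 0.062 uM SA-XL665. Preceding kinase step: human MER (528-end), biotinylated TK substrate, 1 h, room temperature.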
Compound `CN1CCN(Cc2ccc(-c3ccc4cc(OC(=O)N5CC[C@@H](NC(=O)c6cc(-c7cnn(C)c7)cnc6N)C5)ccc4c3)cc2)CC1` [Example 293, 6-(4-((4-methylpiperazin-1-yl)methyl)phenyl)naphthalen-2-yl (R)-3-(2-amino-5-(1-methyl-1H-pyrazol-4-yl)nicotinamido)pyrrolidine-1-carboxylate] has an IC50 of 0.1 to 1 µM.
Work on `Cn1cc(-c2cnc(N)c(C(=O)N[C@@H]3CCN(C(=O)Oc4ccc5ccc(OCC6CCNCC6)cc5c4)C3)c2)cn1` [Example 298] yielded an IC50 of 0.1 to 1 µM.
Compound `Cn1cc(-c2cnc(N)c(C(=O)N[C@@H]3CCN(C(=O)Oc4ccc5ccc(OCCO)cc5c4)C3)c2)cn1` [Example 299, 7-(2-hydroxyethoxy)naphthalen-2-yl (R)-3-(2-amino-5-(1-methyl-1H-pyrazol-4-yl)nicotinamido)pyrrolidine-1-carboxylate] has an IC50 of 0.1 to 1 µM.
`Cn1cc(-c2cnc(N)c(C(=O)N[C@@H]3CCN(C(=O)Oc4cccc(-c5ccc(CNC6CNC6)cc5)c4)C3)c2)cn1` [Example 306, 4′-((azetidin-3-ylamino)methyl)-[1,1′-biphenyl]-3-yl (R)-3-(2-amino-5-(1-methyl-1H-pyrazol-4-yl)nicotinamido)pyrrolidine-1-carboxylate] gave an IC50 of 0.1 to 1 µM.
With `Cn1cc(-c2cnc(N)c(C(=O)N[C@@H]3CCN(C(=O)Oc4cccc(-c5ccc(CNCCN)cc5)c4)C3)c2)cn1` [Example 307, 4′-(((2-aminoethyl)amino)methyl)-[1,1′-biphenyl]-3-yl (R)-3-(2-amino-5-(1-methyl-1H-pyrazol-4-yl)nicotinamido)pyrrolidine-1-carboxylate] the IC50 was 0.1 to 1 µM.
With `CN(C)CCNCc1ccc(-c2cccc(OC(=O)N3CC[C@@H](NC(=O)c4cc(-c5cnn(C)c5)cnc4N)C3)c2)cc1` [Example 308, 4′-(((2-(dimethylamino)ethyl)amino)methyl)-[1,1′-biphenyl]-3-yl (R)-3-(2-amino-5-(1-methyl-1H-pyrazol-4-yl)nicotinamido)pyrrolidine-1-carboxylate] the IC50 was 0.1 to 1 µM.
`CN1CC[C@@H](NCc2ccc(-c3cccc(OC(=O)N4CC[C@@H](NC(=O)c5cc(-c6cnn(C)c6)cnc5N)C4)c3)cc2)C1` [Example 310, 4′-((((R)-1-methylpyrrolidin-3-yl)amino)methyl)-[1,1′-biphenyl]-3-yl (R)-3-(2-amino-5-(1-methyl-1H-pyrazol-4-yl)nicotinamido)pyrrolidine-1-carboxylate] was tested, and the IC50 was 0.1 to 1 µM.
Compound `CN(C)C1CCN(Cc2ccc(-c3cccc(OC(=O)N4CC[C@@H](NC(=O)c5cc(-c6cnn(C)c6)cnc5N)C4)c3)cc2)C1` (stereo partly drawn) [Example 311, 4′-((3-(dimethylamino)pyrrolidin-1-yl)methyl)-[1,1′-biphenyl]-3-yl (3R)-3-(2-amino-5-(1-methyl-1H-pyrazol-4-yl)nicotinamido)pyrrolidine-1-carboxylate] has an IC50 of 0.1 to 1 µM.
Compound `Cn1cc(-c2cnc(N)c(C(=O)N[C@@H]3CCN(C(=O)Oc4cccc(-c5ccc(CNC[C@@H]6CCCN6)cc5)c4)C3)c2)cn1` [Example 312, 4′-(((((S)-pyrrolidin-2-yl)methyl)amino)methyl)-[1,1′-biphenyl]-3-yl (R)-3-(2-amino-5-(1-methyl-1H-pyrazol-4-yl)nicotinamido)pyrrolidine-1-carboxylate] has an IC50 of 0.1 to 1 µM.
For `Cn1cc(-c2cnc(N)c(C(=O)N[C@@H]3CCN(C(=O)Oc4cccc(-c5ccc(CN[C@@H]6CCNC6)cc5)c4)C3)c2)cn1` [Example 313, 4′-((((R)-pyrrolidin-3-yl)amino)methyl)-[1,1′-biphenyl]-3-yl (R)-3-(2-amino-5-(1-methyl-1H-pyrazol-4-yl)nicotinamido)pyrrolidine-1-carboxylate], the IC50 was 0.1 to 1 µM.
For `CCN1CCC[C@@H]1CNCc1ccc(-c2cccc(OC(=O)N3CC[C@@H](NC(=O)c4cc(-c5cnn(C)c5)cnc4N)C3)c2)cc1` [Example 314, 4′-(((((R)-1-ethylpyrrolidin-2-yl)methyl)amino)methyl)-[1,1′-biphenyl]-3-yl (R)-3-(2-amino-5-(1-methyl-1H-pyrazol-4-yl)nicotinamido)pyrrolidine-1-carboxylate], the IC50 was 0.1 to 1 µM.
`Cn1cc(-c2cnc(N)c(C(=O)N[C@@H]3CCN(C(=O)Oc4cccc(-c5ccc(CN[C@H]6CCCNC6)cc5)c4)C3)c2)cn1` [Example 315, 4′-((((S)-piperidin-3-yl)amino)methyl)-[1,1′-biphenyl]-3-yl (R)-3-(2-amino-5-(1-methyl-1H-pyrazol-4-yl)nicotinamido)pyrrolidine-1-carboxylate] was tested, and the IC50 was 0.1 to 1 µM.
In the case of `Cn1cc(-c2cnc(N)c(C(=O)N[C@@H]3CCN(C(=O)Oc4cccc(-c5ccc(CN6CCC[C@@H](N)C6)cc5)c4)C3)c2)cn1` [Example 316, 4′-(((R)-3-aminopiperidin-1-yl)methyl)-[1,1′-biphenyl]-3-yl (R)-3-(2-amino-5-(1-methyl-1H-pyrazol-4-yl)nicotinamido)pyrrolidine-1-carboxylate], the IC50 is reported as 0.1 to 1 µM.
Compound `CN1CCC(NCc2ccc(-c3cccc(OC(=O)N4CC[C@@H](NC(=O)c5cc(-c6cnn(C)c6)cnc5N)C4)c3)cc2)CC1` [Example 318, 4′-(((1-methylpiperidin-4-yl)amino)methyl)-[1,1′-biphenyl]-3-yl (R)-3-(2-amino-5-(1-methyl-1H-pyrazol-4-yl)nicotinamido)pyrrolidine-1-carboxylate] has an IC50 of 0.1 to 1 µM.
Work on `Cn1cc(-c2cnc(N)c(C(=O)N[C@@H]3CCN(C(=O)Oc4cccc(-c5ccc(CN6CCCC(O)C6)cc5)c4)C3)c2)cn1` (stereo partly drawn) [Example 319, 4′-((3-hydroxypiperidin-1-yl)methyl)[1,1′-biphenyl]-3-yl (3R)-3-(2-amino-5-(1-methyl-1H-pyrazol-4-yl)nicotinamido)pyrrolidine-1-carboxylate] yielded an IC50 of 0.1 to 1 µM.
Compound `Cn1cc(-c2cnc(N)c(C(=O)N[C@@H]3CCN(C(=O)Oc4cccc(-c5ccc(CN6CCCC(CO)C6)cc5)c4)C3)c2)cn1` (stereo partly drawn) [Example 320, 4′-((3-(hydroxymethyl)piperidin-1-yl)methyl)-[1,1′-biphenyl]-3-yl (3R)-3-(2-amino-5-(1-methyl-1H-pyrazol-4-yl)nicotinamido)pyrrolidine-1-carboxylate] has an IC50 of 0.1 to 1 µM.
Work on `Cn1cc(-c2cnc(N)c(C(=O)N[C@@H]3CCN(C(=O)Oc4cccc(-c5ccc(CN6CCC(CO)CC6)cc5)c4)C3)c2)cn1` [Example 321, 4′-((4-(hydroxymethyl)piperidin-1-yl)methyl)-[1,1′-biphenyl]-3-yl (R)-3-(2-amino-5-(1-methyl-1H-pyrazol-4-yl)nicotinamido)pyrrolidine-1-carboxylate] yielded an IC50 of 0.1 to 1 µM.
`CN1CC[C@@H]2CN(Cc3ccc(-c4cccc(OC(=O)N5CC[C@@H](NC(=O)c6cc(-c7cnn(C)c7)cnc6N)C5)c4)cc3)C[C@@H]21` [Example 322, 4′-(((3aR,6aR)-1-methylhexahydropyrrolo[3,4-b]pyrrol-5(1H)-yl)methyl)-[1,1′-biphenyl]-3-yl (R)-3-(2-amino-5-(1-methyl-1H-pyrazol-4-yl)nicotinamido)pyrrolidine-1-carboxylate] was tested, and the IC50 was 0.1 to 1 µM.
`Cn1cc(-c2cnc(N)c(C(=O)N[C@@H]3CCN(C(=O)Oc4cccc(-c5ccc(CN6CCCNCC6)cc5)c4)C3)c2)cn1` [Example 323, 4′-((1,4-diazepan-1-yl)methyl)-[1,1′-biphenyl]-3-yl (R)-3-(2-amino-5-(1-methyl-1H-pyrazol-4-yl)nicotinamido)pyrrolidine-1-carboxylate] showed an IC50 of 0.1 to 1 µM.
`Cn1cc(-c2cnc(N)c(C(=O)N[C@@H]3CCN(C(=O)Oc4cccc(-c5ccc(CN6CCC[C@@H]6CO)cc5)c4)C3)c2)cn1` [Example 324, 4′-(((R)-2-(hydroxymethyl)pyrrolidin-1-yl)methyl)-[1,1′-biphenyl]-3-yl (R)-3-(2-amino-5-(1-methyl-1H-pyrazol-4-yl)nicotinamido)pyrrolidine-1-carboxylate] gave an IC50 of 0.1 to 1 µM.
`Cn1cc(-c2cnc(N)c(C(=O)N[C@@H]3CCN(C(=O)Oc4cccc(-c5ccc(CN6CCC[C@H]6C(N)=O)cc5)c4)C3)c2)cn1` [Example 325, 4′-(((S)-2-carbamoylpyrrolidin-1-yl)methyl)-[1,1′-biphenyl]-3-yl (R)-3-(2-amino-5-(1-methyl-1H-pyrazol-4-yl)nicotinamido)pyrrolidine-1-carboxylate] was tested, and the IC50 was > 1 µM.
Work on `C[C@H](CO)NCc1ccc(-c2cccc(OC(=O)N3CC[C@@H](NC(=O)c4cc(-c5cnn(C)c5)cnc4N)C3)c2)cc1` [Example 327, 4′-((((R)-1-hydroxypropan-2-yl)amino)methyl)-[1,1′-biphenyl]-3-yl (R)-3-(2-amino-5-(1-methyl-1H-pyrazol-4-yl)nicotinamido)pyrrolidine-1-carboxylate] yielded an IC50 of 0.1 to 1 µM.
Compound `Cn1cc(-c2cnc(N)c(C(=O)N[C@@H]3CCN(C(=O)Oc4cccc(-c5ccc(CNCCCO)cc5)c4)C3)c2)cn1` [Example 328, 4′-(((3-hydroxypropyl)amino)methyl)-[1,1′-biphenyl]-3-yl (R)-3-(2-amino-5-(1-methyl-1H-pyrazol-4-yl)nicotinamido)pyrrolidine-1-carboxylate] has an IC50 of 0.1 to 1 µM.
With `Cn1cc(-c2cnc(N)c(C(=O)N[C@@H]3CCN(C(=O)Oc4cccc(-c5ccc(CN6CCC(C(=O)O)C6)cc5)c4)C3)c2)cn1` (stereo partly drawn) [Example 329, 1-((3′-(((R)-3-(2-amino-5-(1-methyl-1H-pyrazol-4-yl)nicotinamido)pyrrolidine-1-carbonyl)oxy)-[1,1′-biphenyl]-4-yl)methyl)pyrrolidine-3-carboxylic acid] the IC50 was > 1 µM.
In the case of `Cn1cc(-c2cnc(N)c(C(=O)N[C@@H]3CCN(C(=O)Oc4cccc(-c5cccc(CN6CC[C@H](N)C6)c5)c4)C3)c2)cn1` [Example 337, 3′-(((S)-3-aminopyrrolidin-1-yl)methyl)-[1,1′-biphenyl]-3-yl (R)-3-(2-amino-5-(1-methyl-1H-pyrazol-4-yl)nicotinamido)pyrrolidine-1-carboxylate], the IC50 is reported as > 1 µM.
`Cn1cc(-c2cnc(N)c(C(=O)N[C@@H]3CCN(C(=O)c4ccc(Br)cc4)C3)c2)cn1` [Example 342, (R)-2-amino-N-(1-(4-bromobenzoyl)pyrrolidin-3-yl)-5-(1-methyl-1H-pyrazol-4-yl)nicotinamide] was tested, and the IC50 was > 1 µM.

Source: US12378224B2 (Dong-A Socio Holdings Co., Ltd., priority 2016, dated 2025)
